Data reported in BindingDB's records for doi:10.1016/0960-894X(96)00081-9 (1996).

Assays:
[1] = target: T1, Alpha-1A/Alpha-1B/Alpha-1D adrenergic receptor (Rattus norvegicus, UniProt P15823+P43140+P23944); assay: Binding affinity at Alpha-1 adrenergic receptor in rat cerebral cortex membranes by [3H]prazosin displacement.
T1 sequence (P15823 whole entry): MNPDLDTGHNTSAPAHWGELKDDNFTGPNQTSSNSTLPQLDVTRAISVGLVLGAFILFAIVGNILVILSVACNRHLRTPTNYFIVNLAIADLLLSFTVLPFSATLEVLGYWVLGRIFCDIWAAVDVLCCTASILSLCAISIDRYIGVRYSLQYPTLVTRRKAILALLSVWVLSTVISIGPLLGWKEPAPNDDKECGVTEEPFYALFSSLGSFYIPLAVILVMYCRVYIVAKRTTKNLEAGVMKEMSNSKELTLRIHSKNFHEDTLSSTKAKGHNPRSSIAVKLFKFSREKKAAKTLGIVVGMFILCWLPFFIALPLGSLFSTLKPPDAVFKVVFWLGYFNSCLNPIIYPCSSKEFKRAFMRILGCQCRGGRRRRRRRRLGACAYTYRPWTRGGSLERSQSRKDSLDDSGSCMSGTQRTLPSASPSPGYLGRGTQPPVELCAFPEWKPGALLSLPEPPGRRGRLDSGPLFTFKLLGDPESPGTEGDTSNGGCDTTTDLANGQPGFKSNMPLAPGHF
T1 sequence (P43140 whole entry): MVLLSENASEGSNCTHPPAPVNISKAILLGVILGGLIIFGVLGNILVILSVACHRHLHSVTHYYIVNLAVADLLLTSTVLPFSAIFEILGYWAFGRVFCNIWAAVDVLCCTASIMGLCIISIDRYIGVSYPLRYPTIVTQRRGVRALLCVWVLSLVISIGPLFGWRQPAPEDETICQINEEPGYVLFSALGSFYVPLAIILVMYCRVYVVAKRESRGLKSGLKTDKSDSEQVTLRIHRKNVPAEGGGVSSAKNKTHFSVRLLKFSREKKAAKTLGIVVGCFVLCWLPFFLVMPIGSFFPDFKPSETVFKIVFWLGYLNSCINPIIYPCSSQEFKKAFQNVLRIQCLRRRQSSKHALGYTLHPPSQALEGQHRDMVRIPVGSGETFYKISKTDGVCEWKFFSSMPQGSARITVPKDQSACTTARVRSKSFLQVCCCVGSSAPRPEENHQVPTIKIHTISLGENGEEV
T1 sequence (P23944 whole entry): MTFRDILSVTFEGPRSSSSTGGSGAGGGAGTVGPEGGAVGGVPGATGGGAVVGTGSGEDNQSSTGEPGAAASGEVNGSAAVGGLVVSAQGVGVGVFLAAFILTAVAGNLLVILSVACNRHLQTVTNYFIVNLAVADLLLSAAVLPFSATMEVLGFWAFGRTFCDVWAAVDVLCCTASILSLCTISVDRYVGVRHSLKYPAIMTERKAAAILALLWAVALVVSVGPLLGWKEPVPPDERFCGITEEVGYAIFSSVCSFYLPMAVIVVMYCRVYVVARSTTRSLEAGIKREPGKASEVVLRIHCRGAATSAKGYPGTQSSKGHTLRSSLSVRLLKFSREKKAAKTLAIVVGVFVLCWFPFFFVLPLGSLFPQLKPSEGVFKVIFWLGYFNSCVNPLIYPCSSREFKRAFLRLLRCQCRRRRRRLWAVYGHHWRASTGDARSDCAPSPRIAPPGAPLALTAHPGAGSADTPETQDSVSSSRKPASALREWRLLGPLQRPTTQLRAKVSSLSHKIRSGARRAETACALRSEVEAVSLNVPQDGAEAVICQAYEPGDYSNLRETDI

[2] = target: T2, 5-hydroxytryptamine receptor 1A (Rattus norvegicus, UniProt P19327); assay: ChEBML_841
T2 sequence (P19327 whole entry): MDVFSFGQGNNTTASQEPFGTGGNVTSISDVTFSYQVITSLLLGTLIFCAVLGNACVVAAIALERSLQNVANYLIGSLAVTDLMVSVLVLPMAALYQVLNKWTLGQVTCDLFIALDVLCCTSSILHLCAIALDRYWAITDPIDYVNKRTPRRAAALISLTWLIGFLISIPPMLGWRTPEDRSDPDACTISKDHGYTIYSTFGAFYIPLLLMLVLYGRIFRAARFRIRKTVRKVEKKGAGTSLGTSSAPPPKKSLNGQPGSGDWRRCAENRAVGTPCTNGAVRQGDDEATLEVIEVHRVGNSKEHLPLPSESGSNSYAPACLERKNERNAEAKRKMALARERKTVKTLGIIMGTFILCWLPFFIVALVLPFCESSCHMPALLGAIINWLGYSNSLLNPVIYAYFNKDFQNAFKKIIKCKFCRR
Method: Compound was evaluated for its ability to displace [3H]8-OH-DPAT from serotonin 5-hydroxytryptamine 1A receptor in rat cerebral cortex membranes

| Ki [1] | Ki [2] | SMILES |
| --- | --- | --- |
| 18 nM | 54 nM | O=c1n(CCCN2CCN(c3cccc(Cl)c3)CC2)c(O)c2n1CCCC2 [2-{3-[4-(3-Chloro-phenyl)-piperazin-1-yl]-propyl}-tetrahydro-imidazo[1,5-a]pyridine-1,3-dione] |
| > 1000 nM | – | COc1ccccc1N1CCN(Cn2c(O)c3n(c2=O)CCCC3)CC1 [2-[4-(2-Methoxy-phenyl)-piperazin-1-ylmethyl]-tetrahydro-imidazo[1,5-a]pyridine-1,3-dione] |
| 19 nM | – | O=c1n(CCCCN2CCN(c3ccccc3)CC2)c(O)c2n1CCCC2 [2-[4-(4-Phenyl-piperazin-1-yl)-butyl]-tetrahydro-imidazo[1,5-a]pyridine-1,3-dione] |
